For 13 molecules, IC50 results are on record in US20250304549A1, “HYDROXYAMIDE DERIVATIVE AND USE THEREOF” (SICHUAN HUIYU PHARMACEUTICAL CO., LTD., priority 2022, published 2025).

For one assay, the system named is NCI-H69 cells. Put plainly: In vitro cell inhibition assay - NCI-H69 cell proliferation (CellTiter-Glo). The class given is cell-based. To be noted: Homo sapiens, NCI-H69, H69 small cell lung cancer cell proliferation. Put shortly: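 CellTiter-Glo luminescence measured viability after a 7-day, 37° C. exposure of NCI-H69 cells (1×10^3/well) to an 8-point, 5-fold dilution series in RPMI-640/20% FBS. Inhibition was normalised to untreated and cell-free wells and IC50 derived by curve fitting.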
On the technique in general: ATP-based viability assays read luminescence as a measure of living cells.

Another assay concerns the target LSD1 (Homo sapiens (Human), UniProt O60341). Put plainly: In vitro enzyme inhibition assay - LSD1 (HTRF). In kind it is biochemical. For orientation: In TR-FRET formats the signal depends on donor and acceptor labels being close together.
The subject of the next assay is NCI-H526 cells. Put plainly: In vitro cell inhibition assay - NCI-H526 cell proliferation (CellTiter-Glo). In kind it is cell-based. To be noted: Homo sapiens, NCI-H526, 120 h, H526 small cell lung cancer cell proliferation, 5 days. Here is the method:
6. In Vitro Cell Inhibition Assay—NCI-H526 Cell Proliferation
The inhibitory effect of the compounds on cell proliferation was assessed by detecting the number of viable cells using CellTiter-Glo® reagent. NCI-H526 cells in the logarithmic growth phase were collected and inoculated into transparent bottom 96-well plates at a density 1×10^3 cells per well with 100 μL of medium, and incubated at 37° C., 5% CO2 overnight. The compounds were sequentially diluted in a 5-fold concentration gradient with DMSO to obtain 8 different concentrations. These were then diluted with RPMI-640 (containing 10% FBS) cell culture medium to obtain the compound working solution (2×), which was added to the cell supernatant at 100 μL per well. The incubation continued for 5 days at 37° C., 5% CO2. The plate was then removed and equilibrated at room temperature (25° C.) along with the CellTiter-Glo® mixing reagent for 10-30 minutes; 80 μL of the culture medium was carefully aspirated from each well, and 80 μL of CellTiter-Glo® reagent was added. The cells were thoroughly mixed with the CellTiter-Glo® mixing reagent using a microplate shaker for 2 min. and then incubated at room temperature for 10 min. The 96-well plate was subsequently placed on a multifunctional microplate reader to record the Luminescence values (RLU).
The inhibition rate was calculated using the following formula: […]
Note: ‘Negative’ refers to the group without inhibitors; ‘Blank’ refers to the group without cells.
The IC50 value was determined by fitting the inhibition rate by GraphPad Prism software.

The next assay deals with NCI-H1417 cells. Put plainly: In vitro cell inhibition assay - H1417 cell proliferation (CellTiter-Glo). The class given is cell-based. The settings on record: Homo sapiens, NCI-H1417, H1417 small cell lung cancer cell proliferation. The method in brief: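 Cells exposed to 8 compound concentrations (5-fold dilutions) in BEGM with 10% FBS for 7 days at 37° C., 5% CO2. Viable cells measured by CellTiter-Glo luminescence; inhibition versus no-inhibitor and no-cell controls, IC50 fitted.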

The next assay addresses HDAC8 (Homo sapiens (Human), UniProt Q9BY41). Put plainly: In vitro enzyme inhibition assay - HDAC (HDAC-Glo I/II), HDAC8. The settings on record: read-out: HDAC IC50 (nM) HDAC 8. The class given is biochemical. The procedure:
2. In Vitro Enzyme Inhibition Assay—HDAC
The effect of the compound on the enzymatic activity of pan-HDAC and two isoforms (HDAC1 and HDAC8) was examined using the HDAC-Glo I/II Assay and Screening System assay to assess the level of inhibition of HDAC protease activity and selectivity in each isoform. The proteins and detection reagents were from the HDAC-Glo™ I/II Assay and Screening System (Promega). A 1 mM stock solution of the compound was prepared in DMSO and diluted in a 5-fold gradient to create a series of 8 concentrations, and a specific volume of the highest concentration was diluted 25 times with HDAC Buffer to obtain 4× working solution of the compound. […] The 384-well plate was then read on a multifunctional microplate reader, with the Luminescence channel selected to record Luminescence values (RLU). The inhibition rate was calculated using the following formula: […]
Note: ‘Negative’ refers to the group without the inhibitor; ‘Blank’ refers to the group without the enzyme.
The IC50 value was calculated by fitting the inhibition rate by GraphPad Prism software, employing log (inhibitor) vs. response-Variable Slope (four parameters) model.

The next assay deals with pan-HDAC. Put plainly: In vitro enzyme inhibition assay - HDAC (HDAC-Glo I/II), pan-HDAC. In kind it is biochemical. The method in brief: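 Inhibition was measured with the HDAC-Glo I/II luminescent assay, testing compound as an 8-point, 5-fold dilution series from a 1 mM DMSO stock. Luminescence (RLU) was normalized to no-inhibitor and no-enzyme controls, and IC50 was derived by four-parameter variable-slope fitting.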

Counter-ions that a name gives are not always drawn.

HDAC8, sequence (Q9BY41 whole entry): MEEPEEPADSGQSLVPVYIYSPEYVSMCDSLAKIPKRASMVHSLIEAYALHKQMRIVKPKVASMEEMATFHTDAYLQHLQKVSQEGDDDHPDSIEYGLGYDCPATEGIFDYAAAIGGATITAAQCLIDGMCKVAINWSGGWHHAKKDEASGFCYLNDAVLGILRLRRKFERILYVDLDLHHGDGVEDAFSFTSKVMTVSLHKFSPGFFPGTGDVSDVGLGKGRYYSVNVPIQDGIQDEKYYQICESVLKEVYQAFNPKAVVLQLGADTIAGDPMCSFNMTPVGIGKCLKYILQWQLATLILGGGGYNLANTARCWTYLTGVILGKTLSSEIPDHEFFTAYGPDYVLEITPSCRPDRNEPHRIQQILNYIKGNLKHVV

Usually IC50 stands for the concentration that inhibits the measured activity by half. `COc1ccc(-c2cnc(N3CCC(NCc4ccc(CCC(=O)NO)cc4)CC3)c(C#N)c2-c2ccc(C#N)c(F)c2)cc1O` [Example 43, 3-(4-((1-(3-Cyano-4-(4-cyano-3-fluorophenyl)-5-(3-hydroxy-4-methoxyphenyl)pyridin-2-yl)piperidin-4-yl)amino)methyl)phenyl)-N-hydroxypropanamide formate]: the IC50 in the assay with NCI-H69 cells worked out at 38.5 nM; on LSD1, 0.62 nM; with NCI-H526 cells it was 35.3 nM; in the assay with NCI-H1417 cells, 4.96 nM.
As to `COc1ccc(-c2cnc(N3CCN(CCc4ccc(/C=C/C(=O)NO)cc4)CC3)c(C#N)c2-c2ccc(C#N)c(F)c2)cc1O` [Example 49, (E)-3-(4-(2-(4-(3-Cyano-4-(4-cyano-3-fluorophenyl)-5-(3-hydroxy-4-methoxyphenyl)pyridin-2-yl)piperazin-1-yl)ethyl)phenyl)-N-hydroxyacrylamide hydrochloride], the results for the 50% inhibitory concentration (IC50) in the assay with NCI-H69 cells, in the assay with NCI-H526 cells and in the assay with NCI-H1417 cells were 232 nM, 333 nM and 80.1 nM, respectively.
As to `C/C(=C\C(=O)NO)c1ccc(CNC2CCN(c3ncc(-c4ccc(OCC(C)(C)O)c(O)c4)c(-c4ccc(C#N)c(F)c4)c3C#N)CC2)cc1` [Example 212, (E)-3-(4-(((1-(3-Cyano-4-(4-cyano-3-fluorophenyl)-5-(3-hydroxy-4-(2-hydroxy-2-methylpropoxy)phenyl)pyridin-2-yl)piperidin-4-yl)amino)methyl)phenyl)-N-hydroxybut-2-enamide hydrochloride], the IC50 in the assay on NCI-H69 cells is 53.8 nM; at HDAC8, 41.5 nM; at pan-HDAC it was 6.55 nM; at LSD1, 0.04 nM; with NCI-H1417 cells, 1.16 nM.
Consider `CC(C)(O)COc1ccc(-c2cnc(N3CCC(NCc4ccc(/C=C/C(=O)NO)nc4)CC3)c(CC#N)c2-c2ccc(C#N)c(F)c2)cc1O` [Example 221, (E)-3-(5-(((1-(4-(4-Cyano-3-fluorophenyl)-3-(cyanomethyl)-5-(3-hydroxy-4-(2-hydroxy-2-methylpropoxy)phenyl)pyridin-2-yl)piperidin-4-yl)amino)methyl)pyridin-2-yl)-N-hydroxyacrylamide formate], for which the IC50 in the assay on NCI-H69 cells came to 19.3 nM; against pan-HDAC, 2.2 nM; on LSD1 it was 17.1 nM; in the assay on NCI-H526 cells it was 29 nM; with NCI-H1417 cells it was 16.8 nM.
For the molecule `CC(C)(O)COc1ccc(-c2cnc(N3CCC(NC(C)(C)c4ccc(/C=C/C(=O)NO)cc4)CC3)c(C#N)c2-c2ccc(C#N)c(F)c2)cc1O` [Example 223, (E)-3-(4-(2-((1-(3-Cyano-4-(4-cyano-3-fluorophenyl)-5-(3-hydroxy-4-(2-hydroxy-2-methylpropoxy)phenyl)pyridin-2-yl)piperidin-4-yl)amino)propan-2-yl)phenyl)-N-hydroxyacrylamide hydrochloride], the IC50 was 4.56 nM in the assay on NCI-H69 cells; 4.37 nM at pan-HDAC; 1.01 nM against LSD1; 16.8 nM in the assay on NCI-H526 cells; 3.23 nM in the assay with NCI-H1417 cells.
Take `N#Cc1ccc(-c2c(-c3ccc(OCCc4ccc(/C=C/C(=O)NO)cc4)c(O)c3)cnc(N3CCC(N)CC3)c2C#N)cc1F` [Example 231, (E)-3-(4-(2-(4-(6-(4-Aminopiperidin-1-yl)-5-cyano-4-(4-cyano-3-fluorophenyl)pyridin-3-yl)-2-hydroxyphenoxy)ethyl)phenyl)-N-hydroxyacrylamide hydrochloride]: the IC50 with NCI-H69 cells turned out to be 1140 nM; on HDAC8, 140 nM; against pan-HDAC, 82.4 nM; at LSD1, 0.07 nM; in the assay with NCI-H1417 cells, 1.31 nM.
The matching figures for `COc1ccc(-c2c(C#N)cc(N3CCC(NCc4cnc(/C=C/C(=O)NO)nc4)CC3)nc2-c2ccc(C#N)c(F)c2)cc1O` [Example 234, (E)-3-(5-(((1-(4-Cyano-6-(4-cyano-3-fluorophenyl)-5-(3-hydroxy-4-methoxyphenyl)pyridin-2-yl)piperidin-4-yl)amino)methyl)pyrimidin-2-yl)-N-hydroxyacrylamide formate]: 77.6 nM, 51.1 nM, 13.3 nM, 1.08 nM and 15 nM.
On to `COc1ccc(-c2cnc(N3CCC(NCc4ccc(/C=C/C(=O)NO)cc4)CC3)c(C#N)c2-c2cnc(C#N)c(F)c2)cc1O` [Example 249, (E)-3-(4-(((1-(3′,6-Dicyano-5-fluoro-5′-(3-hydroxy-4-methoxyphenyl)-[3,4′-bipyridin]-2′-yl)piperidin-4-yl)amino)methyl)phenyl)-N-hydroxyacrylamide formate], for which the IC50 with NCI-H69 cells stood at 2.74 nM; against pan-HDAC it was 0.86 nM; on LSD1 it was 1.1 nM; with NCI-H526 cells, 11.7 nM; with NCI-H1417 cells, 1.26 nM.
Consider `COc1cc(F)c(-c2cnc(N3CCC(NCc4ccc(/C=C/C(=O)NO)cc4)CC3)c(C#N)c2-c2ccc(C#N)nc2)cc1O` [Example 255, (E)-3-(4-(((1-(3′,6-Dicyano-5′-(2-fluoro-5-hydroxy-4-methoxyphenyl)-[3,4′-bipyridin]-2′-yl)piperidin-4-yl)amino)methyl)phenyl)-N-hydroxyacrylamide formate], for which the IC50 is 7.82 nM with NCI-H69 cells; 0.68 nM on pan-HDAC; 1.54 nM on LSD1; 11 nM with NCI-H526 cells; 3.39 nM in the assay with NCI-H1417 cells.
Consider `COc1ccc(-c2cnc(N3CCC(NCc4ccc(/C=C/C(=O)NO)c(F)c4)CC3)c(C#N)c2-c2ccc(C#N)nc2)cc1O` [Example 258, (E)-3-(4-(((1-(3′,6-Dicyano-5′-(3-hydroxy-4-methoxyphenyl)-[3,4′-bipyridin]-2′-yl)piperidin-4-yl)amino)methyl)-2-fluorophenyl)-N-hydroxyacrylamide formate], for which the IC50 with NCI-H69 cells is 1.81 nM; against pan-HDAC, 0.3 nM; against LSD1, 1.41 nM; in the assay on NCI-H526 cells it was 2.09 nM; with NCI-H1417 cells, 1.05 nM.
For the molecule `COc1ccc(-c2cnc(N3CCC(NCc4ccc(/C=C(\F)C(=O)NO)cc4)CC3)c(C#N)c2-c2ccc(C#N)nc2)cc1O` [Example 260, (Z)-3-(4-(((1-(3′,6-Dicyano-5′-(3-hydroxy-4-methoxyphenyl)-[3,4′-bipyridin]-2′-yl)piperidin-4-yl)amino)methyl)phenyl)-2-fluoro-N-hydroxyacrylamide dformate], the IC50 in the assay on NCI-H69 cells was found to be 8.18 nM; on pan-HDAC, 0.77 nM; against LSD1, 2.37 nM; in the assay on NCI-H526 cells it was 11.5 nM; in the assay with NCI-H1417 cells, 3.02 nM.
For `COc1ccc(-c2cnc(N3CCC(NCc4ccc(/C=C/C(=O)NO)cc4)CC3)c(OC)c2-c2ccc(C#N)nc2)cc1O` [Example 263, (E)-3-(4-(((1-(6-Cyano-5′-(3-hydroxy-4-methoxyphenyl)-3′-methoxy-[3,4′-bipyridin]-2′-yl)piperidin-4-yl)amino)methyl)phenyl)-N-hydroxyacrylamide formate], in that order: 1.14 nM, 0.34 nM, 16.8 nM, 2.22 nM and 1.64 nM.
For `O=C(CCCCCCC(=O)Nc1ccccc1)NO` [SAHA, Vorinostat, reference compound], the IC50 in the assay on NCI-H526 cells was 397 nM.
